These results are taken from patent US20210002231A1 (Centre National de la Recherche Scientifique, priority 2018, published 2021).

For experiment [1], the target named is human NPFF1R (Homo sapiens, UniProt Q9GZQ6). Kind of experiment: Radioligand competition binding with [125I]-1-DMe-NPFF. Set-up: expressed in transfected cells; HEK293-Glo20F cells (cAMP). On the technique in general: Loss of bound radioactivity is the signal in a displacement assay; it reports binding, not function.
For experiment [2], the target named is T1, human MOPr (Homo sapiens, UniProt P35372). Kind of experiment: cell-based. In kind it is cell-based. Further details: expressed in transfected cells; HEK293-Glo20F cells (cAMP). Particulars: for EC50: Table 3B, read-out: MOPr (cAMP) EC50; for Emax: read-out: MOPr (cAMP) Emax; for MOPr-induced G protein activation: in words. The procedure: Stimulation by endogenous RF-amide peptides or test compounds for [^35S]-GTPγS binding to membranes from CHO cells expressing human NPFF1R or NPFF2R, were examined as reported. 1.6. Glo-Sensor cAMP Assay cAMP accumulation assay was essentially done as described with the following modifications: HEK293 cells stably expressing cAMP Glosensor-20F were used, with or without additional stable expression of each individual opioid receptor or NPFF1R. The cAMP responses were measured in presence of D-luciferin (1 mM).
T1 sequence (P35372 whole entry): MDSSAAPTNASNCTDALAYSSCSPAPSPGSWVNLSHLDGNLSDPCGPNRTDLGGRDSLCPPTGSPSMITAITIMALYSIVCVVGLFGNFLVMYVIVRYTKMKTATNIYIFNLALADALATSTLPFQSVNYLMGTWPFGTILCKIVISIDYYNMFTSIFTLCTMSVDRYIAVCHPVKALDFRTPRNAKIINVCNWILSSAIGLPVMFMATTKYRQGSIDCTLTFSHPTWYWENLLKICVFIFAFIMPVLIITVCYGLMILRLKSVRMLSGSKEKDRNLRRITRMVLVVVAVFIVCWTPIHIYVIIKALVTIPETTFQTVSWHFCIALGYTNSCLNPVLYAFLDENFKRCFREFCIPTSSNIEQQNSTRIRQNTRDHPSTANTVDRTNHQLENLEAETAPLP

For experiment [3], the target named is NPFF2R (Homo sapiens, UniProt Q9Y5X5). Kind of experiment: Radioligand competition binding with [125I]-1-DMe-NPFF. Further details: expressed in transfected cells; HEK293-Glo20F cells (cAMP).
Sequence of NPFF2R (Q9Y5X5 whole entry): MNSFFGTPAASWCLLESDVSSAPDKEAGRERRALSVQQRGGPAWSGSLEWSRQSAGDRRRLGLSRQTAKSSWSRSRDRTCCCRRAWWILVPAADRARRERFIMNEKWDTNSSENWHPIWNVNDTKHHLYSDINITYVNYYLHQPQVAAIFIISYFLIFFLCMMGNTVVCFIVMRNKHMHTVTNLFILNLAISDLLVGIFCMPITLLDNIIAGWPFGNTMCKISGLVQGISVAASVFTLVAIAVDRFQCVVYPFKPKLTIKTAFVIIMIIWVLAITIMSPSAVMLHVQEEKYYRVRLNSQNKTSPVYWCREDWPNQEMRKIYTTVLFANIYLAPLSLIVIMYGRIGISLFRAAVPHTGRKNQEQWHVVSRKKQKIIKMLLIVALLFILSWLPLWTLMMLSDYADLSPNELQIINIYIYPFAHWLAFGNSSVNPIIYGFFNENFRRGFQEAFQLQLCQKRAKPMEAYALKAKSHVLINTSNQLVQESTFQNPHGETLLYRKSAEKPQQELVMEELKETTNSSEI
Experiment [4] addresses T1, human MOPr. Kind of experiment: BRET1 β-arrestin-2 recruitment assay.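 On Emax: Emax relative to maximal DAMGO-induced BRET as 100%.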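 On MOPr (β-arrestin-2) Emax: Emax relative to maximal DAMGO-induced BRET as 100%.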 Particulars: for Emax: read-out: MOPr (β-arrestin-2) Emax; for β-arrestin-2 recruitment: in words. Further details: expressed in transfected cells; host or cells: HEK293 cells stably expressing eYFP-β-arrestin-2, transiently transfected with the Rluc8-MOP plasmid. In kind it is cell-based. The protocol: Peak response amplitudes were normalized to basal and maximal (cells permeabilized with 20 μM digitonin) fluorescence levels. 1.8. β-Arrestin-2 recruitment assay The β-arrestin-2 recruitment assay was performed as described [34; 45] with minor modifications. Briefly, two days prior the experiment, HEK293 cells stably expressing eYFP-tagged β-arrestin-2 were transfected with the plasmid encoding Rluc8-MOP receptor. β-Arrestin-2 recruitment was measured at 37° C. in presence of 5 μM Coelenterazine H, 5 min after agonist addition.
A general note: In BRET a luciferase serves as donor, and the signal depends on an acceptor being close.

[5] abbreviates: Table 3B, — = non-detectable recruitment, read-out: MOPr (β-arrestin-2) EC50.

Molecules are shown by their SMILES. Starred links: 1 amine or outer side, 2 acyl side, 3 side chain; linkers in the order of their positions; H or OH if unused. Non-standard residues stand in square brackets, D forms with d. Residues, ends and D or L forms follow the SMILES beside them. *: point of attachment. Nva(5-(4-Bn-piperidin-1-yl)) = N[C@@H](CCCN1CCC(Cc2ccccc2)CC1)C(=O)O; X5 = O=C1[C@@H](N[*:1])Cc2ccccc2CN1CCCC(=O)[*:2]; X1 = O=C1[C@@H](N[*:1])Cc2ccccc2CN1CCC(=O)[*:2]; Dmt = Cc1cc(O)cc(C)c1C[C@H](N)C(=O)O; d(hArg) = N=C(N)NCCCC[C@@H](N)C(=O)O; NMeβAla = CN(CCC(=O)[*:2])[*:1]; Nicotinoyl = O=C(c1cccnc1)* Bounds are passed on as bounds.
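Wherever MOPr (cAMP) Emax is given: Emax relative to DAMGO as 100%.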

Sequence of human NPFF1R (Q9GZQ6 whole entry): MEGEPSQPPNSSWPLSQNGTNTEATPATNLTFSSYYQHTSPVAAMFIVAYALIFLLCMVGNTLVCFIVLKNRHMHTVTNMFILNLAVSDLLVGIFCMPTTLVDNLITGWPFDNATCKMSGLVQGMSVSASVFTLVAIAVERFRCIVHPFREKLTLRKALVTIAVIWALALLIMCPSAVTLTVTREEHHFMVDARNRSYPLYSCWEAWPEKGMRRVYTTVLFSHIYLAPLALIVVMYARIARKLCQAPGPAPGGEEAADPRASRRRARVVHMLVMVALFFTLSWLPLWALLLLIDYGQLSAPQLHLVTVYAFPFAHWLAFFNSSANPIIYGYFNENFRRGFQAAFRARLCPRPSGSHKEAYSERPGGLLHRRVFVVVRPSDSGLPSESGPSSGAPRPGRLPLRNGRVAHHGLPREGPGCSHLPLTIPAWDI

The term IC50 denotes the concentration needed to halve the response being measured. Low readings indicate greater potency in that assay, high ones weaker potency in that assay. The EC50 is the concentration at which the effect is half-maximal. Usually Emax stands for the size of the effect at its maximum, as opposed to the concentration needed. Take `Cc1cc(O)cc(C)c1C[C@H](N)C(=O)N[C@H](CCCNC(=N)N)C(=O)N[C@H]1Cc2ccccc2CN(CCC(=O)N[C@@H](CCCN2CCC(Cc3ccccc3)CC2)C(=O)N[C@@H](Cc2ccc(O)cc2)C(N)=O)C1=O` [DP0004, H-Dmt-D-Arg-Aba-β-Ala-Bpa-Tyr-NH2] (H-[Dmt][dR][X1][Nva(5-(4-Bn-piperidin-1-yl))]Y-NH2): the IC50 in experiment [1] is 50 to 500 nM; in experiment [3], less than 50 nM. For the same compound, the EC50 in experiment [2] worked out at 4.2 ± 0.7 nM; in experiment [4] (setting [5]) it was 126 nM. The Emax was found to be 88 ± 4% in experiment [2] and 64% in experiment [4].
In the case of `Cc1cc(O)cc(C)c1C[C@H](N)C(=O)N[C@H](CCCNC(=N)N)C(=O)N[C@H]1Cc2ccccc2CN(CCC(=O)N[C@@H](CCCN2CCC(Cc3ccccc3)CC2)C(=O)N[C@@H](Cc2c[nH]c3ccccc23)C(N)=O)C1=O` [DP0005, H-Dmt-D-Arg-Aba-β-Ala-Bpa-Trp-NH2] (H-[Dmt][dR][X1][Nva(5-(4-Bn-piperidin-1-yl))]W-NH2), the values for the IC50 in experiment [1] and in experiment [3] were approximately 50 nM and less than 50 nM, respectively. Besides, the EC50 in experiment [2] was determined as 7.9 ± 0.5 nM; in experiment [4] (setting [5]) it was 98 nM. For the same compound, the Emax in experiment [2] was 81 ± 0.6%; in experiment [4], 42%.
As for `Cc1cc(O)cc(C)c1C[C@H](N)C(=O)N[C@H](CCCNC(=N)N)C(=O)N[C@H]1Cc2c(ccc3ccccc23)CN(CC(=O)N[C@@H](CCCN2CCC(Cc3ccccc3)CC2)C(=O)N[C@@H](Cc2ccccc2)C(N)=O)C1=O` [DP0012, H-Dmt-D-Arg-1AnaGly-Bpa-Phe-NH2], the IC50 in experiment [1] and in experiment [3] was less than 40 nM throughout. For the same compound, the EC50 in experiment [2] worked out at 15.1 ± 0.4 nM; in experiment [4] (setting [5]), 650 nM. Moreover, the Emax was 90 ± 2% in experiment [2] and 22% in experiment [4].
Regarding `Cc1cc(O)cc(C)c1C[C@H](N)C(=O)N[C@H](CCCNC(=N)N)C(=O)N[C@@H](Cc1ccccc1)C(=O)N(C)CCC(=O)N[C@@H](CCCN1CCC(Cc2ccccc2)CC1)C(=O)N[C@@H](Cc1ccccc1)C(N)=O` [DP0013, H-Dmt-D-Arg-Phe-N(Me)-β-Ala-Bpa-Phe-NH2] (H-[Dmt][dR]F[NMeβAla][Nva(5-(4-Bn-piperidin-1-yl))]F-NH2), the IC50 in experiment [1] is less than 40 nM; in experiment [3], approximately 40 nM. Further, the EC50 was 0.53 ± 0.004 nM in experiment [2] and 20.5 nM in experiment [4] (setting [5]). Besides, the Emax turned out to be 115 ± 4% in experiment [2] and 101% in experiment [4].
The compound `Cc1cc(O)cc(C)c1C[C@H](N)C(=O)N(C)[C@H](C)C(=O)N[C@H]1Cc2c(ccc3ccccc23)CN(CC(=O)N[C@@H](CCCN2CCC(Cc3ccccc3)CC2)C(=O)N[C@@H](Cc2ccccc2)C(N)=O)C1=O` [DP0014, H-Dmt-N(Me)-D-Ala-1AnaGly-Bpa-Phe-NH2] displayed an IC50 in experiment [1] of less than 40 nM. In experiment [2], the EC50 worked out at 5.3 nM, the “MOPr-induced G protein activation” value is on record as “significant” and the Emax turned out to be 76%. The compound further came in with a half-maximal inhibitory concentration (IC50) in experiment [3] of approximately 40 nM. Besides, in experiment [4], the β-arrestin-2 recruitment entry is on record as “non-detectable”.
For `Cc1cc(O)cc(C)c1C[C@H](N)C(=O)N[C@H](CCCNC(=N)N)C(=O)N[C@H]1Cc2ccccc2CN(CCCC(=O)N[C@@H](CCCN2CCC(Cc3ccccc3)CC2)C(=O)N[C@@H](Cc2ccccc2)C(N)=O)C1=O` [DP0018, H-Dmt-D-Arg-AbaGABA-Bpa-Phe-NH2] (H-[Dmt][dR][X5][Nva(5-(4-Bn-piperidin-1-yl))]F-NH2), the IC50 in experiment [1] was 40 to 400 nM; in experiment [3] it was less than 40 nM. For the same compound, the EC50 in experiment [2] was determined as 5.5 nM; in experiment [4] (setting [5]), 95.8 nM. The maximum response (Emax) in experiment [2] stood at 108%; in experiment [4], 31%.
Consider `Cc1cc(O)cc(C)c1C[C@H](N)C(=O)N[C@H](CCCNC(=N)N)C(=O)N[C@@H](Cc1ccccc1)C(=O)NCCC(=O)N[C@@H](CCCN1CCC(Cc2ccccc2)CC1)C(=O)N[C@@H](Cc1ccccc1)C(N)=O` [DP0019, H-Dmt-D-Arg-Phe-β-Ala-Bpa-Phe-NH2] (HELM PEPTIDE1{[Cc1cc(O)cc(C)c1C[C@H](N)C(=O)[*:2]].[dR].F.[bAla].[O=C([C@H](CCCN1CCC(Cc2ccccc2)CC1)N[*:1])[*:2]].F.[am]}$$$$V2.0), for which the IC50 in experiment [1] and in experiment [3] was 40 to 400 nM throughout. Besides, the EC50 in experiment [2] turned out to be 4 ± 0.4 nM; in experiment [4] (setting [5]) it was 162 nM. The figures for the maximal effect (Emax) in experiment [2] and in experiment [4] were 101 ± 1% and 53%, respectively.
For `Cc1cc(O)cc(C)c1C[C@H](N)C(=O)N[C@H](CCCNC(=N)N)C(=O)N[C@H]1Cc2ccccc2CN(CCCC(=O)N[C@@H](CCCN2CCC(Cc3ccccc3)CC2)C(=O)N[C@H](C(N)=O)C(C)C)C1=O` [DP0020, H-Dmt-D-Arg-AbaGABA-Bpa-Val-NH2] (H-[Dmt][dR][X5][Nva(5-(4-Bn-piperidin-1-yl))]V-NH2), the IC50 in experiment [1] and in experiment [3] was 40 to 400 nM each time. The results for the EC50 in experiment [2] and in experiment [4] (setting [5]) were 6.3 nM and 149 nM, respectively. Also, the figures for the Emax in experiment [2] and in experiment [4] were 101% and 53%, respectively.
On to `Cc1cc(O)cc(C)c1C[C@H](N)C(=O)N[C@H](CCCNC(=N)N)C(=O)N[C@H]1Cc2c(ccc3ccccc23)CN(CC(=O)N[C@@H](CCCN2CCC(Cc3ccccc3)CC2)C(=O)N[C@H](C(N)=O)C(C)C)C1=O` [DP0021, H-Dmt-D-Arg-1AnaGly-Bpa-Val-NH2], for which the IC50 in experiment [1] is 40 to 400 nM; in experiment [3] it was less than 40 nM. Moreover, the figures for the EC50 in experiment [2] and in experiment [4] (setting [5]) were 2.8 ± 0.4 nM and 109 ± 57 nM, respectively. In addition, the Emax in experiment [2] was 102 ± 3%; in experiment [4], 22%.
For `Cc1cc(O)cc(C)c1C[C@H](N)C(=O)N[C@H](CCCNC(=N)N)C(=O)N[C@H]1Cc2ccccc2CN(CCCC(=O)N[C@@H](CCCN2CCC(Cc3ccccc3)CC2)C(=O)N[C@@H](Cc2c[nH]c3ccccc23)C(N)=O)C1=O` [DP0022, H-Dmt-D-Arg-AbaGABA-Bpa-Trp-NH2] (H-[Dmt][dR][X5][Nva(5-(4-Bn-piperidin-1-yl))]W-NH2), the IC50 was approximately 40 nM in experiment [1] and less than 40 nM in experiment [3]. Also, the EC50 worked out at 5 nM in experiment [2] and 617 ± 205 nM in experiment [4] (setting [5]). Moreover, the Emax in experiment [2] is 90%; in experiment [4] it was 30 ± 0.7%.
Regarding `Cc1cc(O)cc(C)c1C[C@H](N)C(=O)N[C@H](CCCCNC(=N)N)C(=O)N[C@H]1Cc2ccccc2CN(CCC(=O)N[C@@H](CCCN2CCC(Cc3ccccc3)CC2)C(=O)N[C@@H](Cc2ccccc2)C(N)=O)C1=O` [DP0033, H-Dmt-D-hArg-Aba-β-Ala-Bpa-Phe-NH2] (H-[Dmt][d(hArg)][X1][Nva(5-(4-Bn-piperidin-1-yl))]F-NH2), in experiment [2], the EC50 is 24.9 nM, the “MOPr-induced G protein activation” value was “significant” and the Emax amounted to 41%. For the same compound, in experiment [4], the β-arrestin-2 recruitment result is on record as “non-detectable”.
`Cc1cc(O)cc(C)c1C[C@H](N)C(=O)N[C@H](CCCCNC(=O)c1cccnc1)C(=O)N[C@H]1Cc2ccccc2CN(CCC(=O)N[C@@H](CCCN2CCC(Cc3ccccc3)CC2)C(=O)N[C@@H](Cc2ccccc2)C(N)=O)C1=O` [DP0034, H-Dmt-D-Lys(Nic)-Aba-β-Ala-Bpa-Phe-NH2] (H-[Dmt][dK](Nicotinoyl)[X1][Nva(5-(4-Bn-piperidin-1-yl))]F-NH2): in experiment [2], the concentration giving a half-maximal response (EC50) was found to be 3.9 nM and the Emax turned out to be 92%. Further, in experiment [4], the EC50 lay within 5 to 50 nM and the maximum response (Emax) was approximately 18%.
